Experimental data as given in ChEMBL document CHEMBL4507304, “Data for DCP probe TP-021” (2021).

Tests used:
[1] = target: Mitogen-activated protein kinase kinase kinase 6 (Homo sapiens) (UniProt O95382); details: Compound concentration 1000.0 nM
[2] = target: Serine/threonine-protein kinase WNK3 (Homo sapiens) (UniProt Q9BYP7); details: Compound concentration 1000.0 nM
[3] = target: Calcium-dependent protein kinase 1 (Plasmodium falciparum) (UniProt P62344); details: Compound concentration 1000.0 nM
[4] = target: Protein-tyrosine kinase 2-beta (Homo sapiens) (UniProt Q14289); details: Compound concentration 1000.0 nM
[5] = tested on: Tyrosine-protein kinase ABL1 (Homo sapiens), P00519 [T315I]; details: Compound concentration 1000.0 nM
[6] = target: Rho-associated protein kinase 2 (Homo sapiens) (UniProt O75116); details: Compound concentration 1000.0 nM
[7] = target: Angiopoietin-1 receptor (Homo sapiens) (UniProt Q02763); details: Compound concentration 1000.0 nM
[8] = target: Serine/threonine-protein kinase ICK (Homo sapiens) (UniProt Q9UPZ9); details: Compound concentration 1000.0 nM
[9] = target: D(4) dopamine receptor (Homo sapiens) (UniProt P21917); details: Compound concentration 10.0 uM
[10] = tested on: Receptor-type tyrosine-protein kinase FLT3 (Homo sapiens), P36888 [UNDEFINED MUTATION]; details: Compound concentration 1000.0 nM
[11] = target: Fibroblast growth factor receptor 3 (Homo sapiens) (UniProt P22607); details: Compound concentration 1000.0 nM
[12] = target: Serine/threonine-protein kinase MARK1 (Homo sapiens) (UniProt Q9P0L2); details: Compound concentration 1000.0 nM
[13] = target: Serine/threonine-protein kinase Sgk3 (Homo sapiens) (UniProt Q96BR1); details: Compound concentration 1000.0 nM
[14] = target: 5-hydroxytryptamine receptor 1A (Homo sapiens) (UniProt P08908); details: Compound concentration 10.0 uM
[15] = target: Protein kinase C eta type (Homo sapiens) (UniProt P24723); details: Compound concentration 1000.0 nM
[16] = target: Casein kinase I isoform gamma-2 (Homo sapiens) (UniProt P78368); details: Compound concentration 1000.0 nM
[17] = target: Vascular endothelial growth factor receptor 2 (Homo sapiens) (UniProt P35968); details: Compound concentration 1000.0 nM
[18] = target: Epithelial discoidin domain-containing receptor 1 (Homo sapiens) (UniProt Q08345); details: Compound concentration 1000.0 nM
[19] = target: cGMP-dependent protein kinase 1 (Homo sapiens) (UniProt Q13976); details: Compound concentration 1000.0 nM
[20] = target: Calcium/calmodulin-dependent protein kinase kinase 1 (Homo sapiens) (UniProt Q8N5S9); details: Compound concentration 1000.0 nM
[21] = target: Ribosomal protein S6 kinase alpha-1 (Homo sapiens) (UniProt Q15418); details: Compound concentration 1000.0 nM
[22] = target: Dual specificity protein kinase CLK2 (Homo sapiens) (UniProt P49760); details: Compound concentration 1000.0 nM
[23] = target: Tyrosine-protein kinase CSK (Homo sapiens) (UniProt P41240); details: Compound concentration 1000.0 nM
[24] = target: Tyrosine-protein kinase Lyn (Homo sapiens) (UniProt P07948); details: Compound concentration 1000.0 nM
[25] = target: Membrane-associated tyrosine- and threonine-specific cdc2-inhibitory kinase (Homo sapiens) (UniProt Q99640); details: Compound concentration 1000.0 nM
[26] = tested on: Epidermal growth factor receptor (Homo sapiens), P00533 [UNDEFINED MUTATION]; details: Compound concentration 1000.0 nM
[27] = target: Serine/threonine-protein kinase RIO2 (Homo sapiens) (UniProt Q9BVS4); details: Compound concentration 1000.0 nM
[28] = target: Ephrin type-B receptor 2 (Homo sapiens) (UniProt P29323); details: Compound concentration 1000.0 nM
[29] = target: Receptor-interacting serine/threonine-protein kinase 2 (Homo sapiens) (UniProt O43353); details: Compound concentration 1000.0 nM
[30] = target: Serine/threonine-protein kinase 36 (Homo sapiens) (UniProt Q9NRP7); details: Compound concentration 1000.0 nM
[31] = tested on: Tyrosine-protein kinase ABL1 (Homo sapiens), P00519 [F317L]; details: Compound concentration 1000.0 nM
[32] = target: Serine/threonine-protein kinase MAK (Homo sapiens) (UniProt P20794); details: Compound concentration 1000.0 nM
[33] = target: Inhibitor of nuclear factor kappa-B kinase subunit beta (Homo sapiens) (UniProt O14920); details: Compound concentration 1000.0 nM
[34] = target: Serine/threonine-protein kinase PAK 5 (Homo sapiens) (UniProt Q9P286); details: Compound concentration 1000.0 nM
Rattus norvegicus = species: Rattus norvegicus; details: Compound concentration 10.0 uM
[35] = target: SRSF protein kinase 2 (Homo sapiens) (UniProt P78362); details: Compound concentration 1000.0 nM
[36] = tested on: Receptor-type tyrosine-protein kinase FLT3 (Homo sapiens), P36888 [UNDEFINED MUTATION]; details: Compound concentration 1000.0 nM; remark: listed apart in the source
[37] = target: Serine/threonine-protein kinase 17A (Homo sapiens) (UniProt Q9UEE5); details: Compound concentration 1000.0 nM
[38] = target: Serine/threonine-protein kinase WNK2 (Homo sapiens) (UniProt Q9Y3S1); details: Compound concentration 1000.0 nM
[39] = target: Proto-oncogene tyrosine-protein kinase Src (Homo sapiens) (UniProt P12931); details: Compound concentration 1000.0 nM
[40] = target: Calcium/calmodulin-dependent protein kinase kinase 2 (Homo sapiens) (UniProt Q96RR4); details: Compound concentration 1000.0 nM
[41] = target: Fibroblast growth factor receptor 2 (Homo sapiens) (UniProt P21802); details: Compound concentration 1000.0 nM
[42] = tested on: Tyrosine-protein kinase ABL1 (Homo sapiens), P00519 [T315I]; details: Compound concentration 1000.0 nM; remark: listed apart in the source
[43] = target: Serine/threonine-protein kinase DCLK3 (Homo sapiens) (UniProt Q9C098); details: Compound concentration 1000.0 nM
[44] = target: Alpha-1B adrenergic receptor (Homo sapiens) (UniProt P35368); details: Compound concentration 10.0 uM
Chain of Alpha-1B adrenergic receptor (Homo sapiens) (P35368 whole entry): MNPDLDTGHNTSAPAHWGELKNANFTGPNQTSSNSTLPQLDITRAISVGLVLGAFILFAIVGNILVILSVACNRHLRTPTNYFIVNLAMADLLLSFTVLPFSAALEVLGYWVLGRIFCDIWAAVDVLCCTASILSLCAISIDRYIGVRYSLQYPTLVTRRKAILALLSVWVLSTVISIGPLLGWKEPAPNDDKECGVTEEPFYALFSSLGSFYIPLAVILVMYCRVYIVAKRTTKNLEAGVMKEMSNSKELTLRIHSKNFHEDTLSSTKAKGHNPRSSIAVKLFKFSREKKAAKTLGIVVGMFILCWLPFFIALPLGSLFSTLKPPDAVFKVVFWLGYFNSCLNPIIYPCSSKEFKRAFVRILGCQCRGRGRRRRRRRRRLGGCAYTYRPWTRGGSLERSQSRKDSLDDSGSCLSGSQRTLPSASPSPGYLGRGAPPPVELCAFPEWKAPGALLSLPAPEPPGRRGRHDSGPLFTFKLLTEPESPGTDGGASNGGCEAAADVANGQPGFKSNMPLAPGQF

Chain of Receptor-type tyrosine-protein kinase FLT3 (Homo sapiens), P36888 [UNDEFINED MUTATION] (P36888 whole entry, looked up, change not shown): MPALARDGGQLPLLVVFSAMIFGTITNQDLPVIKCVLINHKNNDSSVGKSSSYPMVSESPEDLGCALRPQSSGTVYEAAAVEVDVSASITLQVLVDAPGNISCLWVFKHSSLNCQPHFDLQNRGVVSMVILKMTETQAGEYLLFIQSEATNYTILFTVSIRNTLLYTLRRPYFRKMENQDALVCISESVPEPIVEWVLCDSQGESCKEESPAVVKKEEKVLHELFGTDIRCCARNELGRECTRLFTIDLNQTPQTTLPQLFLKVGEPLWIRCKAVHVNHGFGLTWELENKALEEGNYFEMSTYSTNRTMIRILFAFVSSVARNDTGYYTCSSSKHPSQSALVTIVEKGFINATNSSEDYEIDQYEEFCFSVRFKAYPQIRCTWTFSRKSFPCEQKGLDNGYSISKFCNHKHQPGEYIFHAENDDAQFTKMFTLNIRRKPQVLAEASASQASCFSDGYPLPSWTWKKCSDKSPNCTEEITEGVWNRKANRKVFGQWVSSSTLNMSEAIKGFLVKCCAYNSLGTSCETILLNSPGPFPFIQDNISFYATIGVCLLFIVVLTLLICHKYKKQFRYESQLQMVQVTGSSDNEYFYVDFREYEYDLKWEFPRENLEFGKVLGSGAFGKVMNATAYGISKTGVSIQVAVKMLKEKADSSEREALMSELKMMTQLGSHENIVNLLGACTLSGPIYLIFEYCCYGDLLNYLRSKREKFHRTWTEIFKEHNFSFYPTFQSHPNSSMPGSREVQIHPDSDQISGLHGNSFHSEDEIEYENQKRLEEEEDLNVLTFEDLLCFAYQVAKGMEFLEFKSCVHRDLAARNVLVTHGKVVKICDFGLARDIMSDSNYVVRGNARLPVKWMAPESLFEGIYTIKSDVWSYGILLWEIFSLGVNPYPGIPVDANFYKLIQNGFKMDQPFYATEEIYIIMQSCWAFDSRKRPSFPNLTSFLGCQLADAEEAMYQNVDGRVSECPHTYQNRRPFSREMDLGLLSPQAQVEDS
Chain of Epithelial discoidin domain-containing receptor 1 (Homo sapiens) (Q08345 whole entry, the tested form may be a part): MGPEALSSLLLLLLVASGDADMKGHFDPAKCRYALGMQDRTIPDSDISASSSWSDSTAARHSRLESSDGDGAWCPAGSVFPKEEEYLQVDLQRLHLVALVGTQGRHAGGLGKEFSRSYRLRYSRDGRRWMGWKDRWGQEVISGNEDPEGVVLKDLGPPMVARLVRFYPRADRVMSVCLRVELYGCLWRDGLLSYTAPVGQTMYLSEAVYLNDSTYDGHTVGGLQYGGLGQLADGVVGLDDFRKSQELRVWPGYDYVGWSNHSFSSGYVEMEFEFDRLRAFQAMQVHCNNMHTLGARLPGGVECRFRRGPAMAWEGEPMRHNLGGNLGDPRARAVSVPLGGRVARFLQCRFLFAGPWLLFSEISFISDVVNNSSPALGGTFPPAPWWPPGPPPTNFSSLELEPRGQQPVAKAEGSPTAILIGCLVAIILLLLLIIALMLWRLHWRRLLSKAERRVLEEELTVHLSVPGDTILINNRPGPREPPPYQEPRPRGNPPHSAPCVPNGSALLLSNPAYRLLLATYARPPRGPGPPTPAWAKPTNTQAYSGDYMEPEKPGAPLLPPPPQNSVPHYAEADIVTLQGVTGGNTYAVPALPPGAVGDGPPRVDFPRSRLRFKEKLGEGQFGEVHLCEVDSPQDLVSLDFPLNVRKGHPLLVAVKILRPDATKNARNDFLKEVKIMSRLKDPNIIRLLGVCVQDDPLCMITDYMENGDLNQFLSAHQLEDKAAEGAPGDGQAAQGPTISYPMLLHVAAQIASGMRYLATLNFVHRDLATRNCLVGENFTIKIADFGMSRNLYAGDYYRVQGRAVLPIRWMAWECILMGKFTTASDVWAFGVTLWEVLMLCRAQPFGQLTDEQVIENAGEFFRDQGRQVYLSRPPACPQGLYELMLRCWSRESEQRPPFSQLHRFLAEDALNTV
Chain of D(4) dopamine receptor (Homo sapiens) (P21917 whole entry): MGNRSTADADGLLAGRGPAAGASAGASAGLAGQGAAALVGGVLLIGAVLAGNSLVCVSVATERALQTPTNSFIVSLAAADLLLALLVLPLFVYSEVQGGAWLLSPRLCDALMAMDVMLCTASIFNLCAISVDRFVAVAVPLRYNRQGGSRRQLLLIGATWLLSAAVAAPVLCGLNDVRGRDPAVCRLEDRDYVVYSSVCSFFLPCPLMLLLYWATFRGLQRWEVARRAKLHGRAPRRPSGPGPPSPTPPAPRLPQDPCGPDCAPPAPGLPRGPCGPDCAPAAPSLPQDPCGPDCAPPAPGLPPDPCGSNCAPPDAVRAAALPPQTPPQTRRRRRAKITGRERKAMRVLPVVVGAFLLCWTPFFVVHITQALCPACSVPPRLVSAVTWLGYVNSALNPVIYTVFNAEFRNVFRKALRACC
Chain of 5-hydroxytryptamine receptor 1A (Homo sapiens) (P08908 whole entry): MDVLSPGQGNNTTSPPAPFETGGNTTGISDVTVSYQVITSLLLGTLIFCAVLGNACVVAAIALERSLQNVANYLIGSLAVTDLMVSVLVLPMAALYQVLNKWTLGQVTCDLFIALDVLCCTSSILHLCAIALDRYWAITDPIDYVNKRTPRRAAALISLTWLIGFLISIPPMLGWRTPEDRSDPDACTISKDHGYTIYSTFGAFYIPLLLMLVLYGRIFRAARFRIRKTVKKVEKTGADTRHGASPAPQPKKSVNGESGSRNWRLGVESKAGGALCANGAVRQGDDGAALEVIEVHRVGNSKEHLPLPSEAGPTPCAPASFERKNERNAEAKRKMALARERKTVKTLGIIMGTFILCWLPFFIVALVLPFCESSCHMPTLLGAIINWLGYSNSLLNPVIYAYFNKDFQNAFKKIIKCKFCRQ
Chain of Vascular endothelial growth factor receptor 2 (Homo sapiens) (P35968 whole entry, the tested form may be a part): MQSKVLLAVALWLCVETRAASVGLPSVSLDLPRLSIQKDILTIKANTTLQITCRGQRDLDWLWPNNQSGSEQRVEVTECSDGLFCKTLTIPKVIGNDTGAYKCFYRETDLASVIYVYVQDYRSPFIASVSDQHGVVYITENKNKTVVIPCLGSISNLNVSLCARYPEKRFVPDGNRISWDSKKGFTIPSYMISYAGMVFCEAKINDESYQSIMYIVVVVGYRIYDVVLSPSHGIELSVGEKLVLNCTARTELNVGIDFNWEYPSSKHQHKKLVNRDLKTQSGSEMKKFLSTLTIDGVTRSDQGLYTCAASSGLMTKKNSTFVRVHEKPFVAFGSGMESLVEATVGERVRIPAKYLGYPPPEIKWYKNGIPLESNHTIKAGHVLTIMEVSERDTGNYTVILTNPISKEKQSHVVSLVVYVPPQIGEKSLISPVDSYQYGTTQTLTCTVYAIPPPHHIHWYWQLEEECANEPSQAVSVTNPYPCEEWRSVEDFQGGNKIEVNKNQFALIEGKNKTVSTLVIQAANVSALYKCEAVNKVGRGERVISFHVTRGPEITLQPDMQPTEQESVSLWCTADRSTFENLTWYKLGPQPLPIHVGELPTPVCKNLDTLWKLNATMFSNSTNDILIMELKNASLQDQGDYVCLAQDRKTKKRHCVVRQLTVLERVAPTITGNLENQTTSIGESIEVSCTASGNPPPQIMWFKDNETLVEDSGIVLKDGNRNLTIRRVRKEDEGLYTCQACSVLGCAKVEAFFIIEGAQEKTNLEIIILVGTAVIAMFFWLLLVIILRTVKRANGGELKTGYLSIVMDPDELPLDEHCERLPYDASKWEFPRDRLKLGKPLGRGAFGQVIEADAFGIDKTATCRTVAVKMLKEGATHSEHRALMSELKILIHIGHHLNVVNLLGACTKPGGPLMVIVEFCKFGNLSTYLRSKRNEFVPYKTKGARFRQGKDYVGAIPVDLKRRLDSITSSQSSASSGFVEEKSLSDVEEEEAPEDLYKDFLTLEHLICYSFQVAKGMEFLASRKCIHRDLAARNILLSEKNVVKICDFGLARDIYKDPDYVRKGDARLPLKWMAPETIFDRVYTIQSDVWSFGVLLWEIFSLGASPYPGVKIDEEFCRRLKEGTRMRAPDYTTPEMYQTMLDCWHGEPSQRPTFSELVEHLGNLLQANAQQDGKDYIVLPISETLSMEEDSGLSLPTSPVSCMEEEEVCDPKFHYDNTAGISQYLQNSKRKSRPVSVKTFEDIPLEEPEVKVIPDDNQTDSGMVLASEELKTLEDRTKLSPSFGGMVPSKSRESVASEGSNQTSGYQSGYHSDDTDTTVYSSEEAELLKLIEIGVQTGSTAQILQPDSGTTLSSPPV
Chain of Serine/threonine-protein kinase 17A (Homo sapiens) (Q9UEE5 whole entry): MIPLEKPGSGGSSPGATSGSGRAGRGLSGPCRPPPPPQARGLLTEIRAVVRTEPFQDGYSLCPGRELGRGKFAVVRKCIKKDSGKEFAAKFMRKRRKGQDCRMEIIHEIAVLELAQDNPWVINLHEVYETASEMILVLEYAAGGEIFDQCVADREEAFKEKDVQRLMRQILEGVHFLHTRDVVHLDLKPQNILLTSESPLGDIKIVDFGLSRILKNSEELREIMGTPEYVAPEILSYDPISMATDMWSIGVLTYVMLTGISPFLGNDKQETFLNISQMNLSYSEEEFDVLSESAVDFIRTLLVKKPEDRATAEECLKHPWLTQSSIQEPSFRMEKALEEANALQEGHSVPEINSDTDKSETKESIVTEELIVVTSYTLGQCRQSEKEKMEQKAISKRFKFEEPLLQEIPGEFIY

N#Cc1ccc(Nc2ccc3[nH]c(=O)[nH]c3c2)c(Cl)c1
inactive: residual activity [1] 100% | residual activity [2] 100% | residual activity [3] 99% | residual activity [4] 100% | residual activity [5] 90% | residual activity [6] 100% | residual activity [7] 85% | residual activity [8] 97% | inhibition [9] -2.02% | residual activity [10] 100% | residual activity [11] 100% | residual activity [12] 90% | residual activity [13] 100% | inhibition [14] -5.44% | residual activity [15] 97% | residual activity [16] 100% | residual activity [17] 99% | residual activity [18] 100% | residual activity [19] 80% | residual activity [20] 100% | residual activity [21] 93% | residual activity [22] 100% | residual activity [23] 89% | residual activity [24] 78% | residual activity [25] 100% | residual activity [26] 62% | residual activity [27] 89% | residual activity [28] 70% | residual activity [29] 70% | residual activity [30] 100% | residual activity [31] 100% | residual activity [32] 100% | residual activity [33] 89% | residual activity [34] 100% | inhibition (Rattus norvegicus) 3.22% | residual activity [35] 100% | residual activity [36] 100% | residual activity [37] 94% | residual activity [38] 100% | residual activity [39] 92% | residual activity [40] 91% | residual activity [41] 100% | residual activity [42] 93% | residual activity [43] 88% | inhibition [44] 10%

O=C1CCc2cc(Nc3cc(OC4CCOCC4)c([N+](=O)[O-])cc3Cl)ccc2N1
inactive: residual activity [1] 91% | residual activity [2] 87% | residual activity [3] 100% | residual activity [4] 83% | residual activity [5] 99% | residual activity [6] 100% | residual activity [7] 76% | residual activity [8] 100% | inhibition [9] -2.6% | residual activity [10] 89% | residual activity [11] 100% | residual activity [12] 99% | residual activity [13] 100% | inhibition [14] -4.09% | residual activity [15] 86% | residual activity [16] 88% | residual activity [17] 100% | residual activity [18] 94% | residual activity [19] 89% | residual activity [20] 100% | residual activity [21] 100% | residual activity [22] 99% | residual activity [23] 98% | residual activity [24] 93% | residual activity [25] 79% | residual activity [26] 65% | residual activity [27] 89% | residual activity [28] 96% | residual activity [29] 53% | residual activity [30] 96% | residual activity [31] 74% | residual activity [32] 100% | residual activity [33] 100% | residual activity [34] 100% | inhibition (Rattus norvegicus) 13.4% | residual activity [35] 100% | residual activity [36] 78% | residual activity [37] 95% | residual activity [38] 100% | residual activity [39] 100% | residual activity [40] 100% | residual activity [41] 100% | residual activity [42] 80% | residual activity [43] 91% | inhibition [44] 17.2%
